Literature values in patent publication US20090247493A1, “Regimens for Treatment of Conditions Related to Estrogen Deficiency” (Duramed Pharmaceuticals, Inc., priority 2006, published 2009).

Conditions: in a contraceptive regimen

| SMILES | dose roughly equivalent to 30 μg of ethinyl estradiol |
| --- | --- |
| C#C[C@]1(O)CC[C@H]2[C@@H]3CCc4cc(OC)ccc4[C@H]3CC[C@@]21C [mestranol] | about 60 μg |
| C[C@]12CC[C@@H]3c4ccc(O)cc4CC[C@H]3[C@@H]1CC[C@@H]2O [17β-estradiol] | about 2,000 μg |
